Data reported in patent US20100029761A1, “NOVEL COMPOUNDS, PHARMACEUTICAL COMPOSITIONS CONTAINING SAME, AND METHODS OF USE FOR SAME” (priority 2005, published 2010).
≈ marks a conversion by molar mass, not a printed value. Where two headings read alike, the source gives them in different places. One block for each compound: values may come before it.

Legend:
[1] = tested on: MCF-7 human breast cancer cells; test: XTT cytotoxicity assay (M); assay type: cell-based; conditions: MCF7, MCF-7, 72 hours
Protocol: The XTT assay is a non-radioactive alternative for the [^51Cr] release cytotoxicity assay. XTT is a tetrazolium salt that is reduced to a formazan dye only by metabolically active, viable cells. The reduction of XTT is measured spectrophotometrically as OD490-OD650. To measure the cytotoxicity of specific compounds against cancer cells, 9×10^3 MCF-7 human breast cancer cells, obtained from the American Type Culture Collection are plated per well in 96 well plates in DMEM medium with 10% fetal bovine serum, insulin, penicillin, and streptomycin. Following overnight culture at 37° C. and 5% CO2, the compounds to be tested, dissolved in DMSO, are added to the wells in 1 μl volume at the following concentrations: 80, 40, 20, 10, 5, 2.5, 1.25, and 0.625 μg/ml in triplicate. Additional concentrations are tested if required. 1 μl of DMSO is added to triplicate wells are the vehicle control. C75 is run at 40, 20, […], and 5 μg/ml in triplicate as positive controls. After 72 hours of incubation, cells are incubated for 4 hours with the XTT reagent as per manufacturer's instructions (Cell Proliferation Kit II (XTT) Roche). Plates are read at OD490 and OD650 on a Molecular Devices SpectraMax Plus Spectrophotometer. Three wells containing the XTT reagent without cells serve as the plate blank. XTT data are reported as OD490-OD650. Averages and standard error of the mean are computed using SOFTmax Pro software (Molecular Dynamics). The IC50 for the compounds is defined as the concentration of drug leading to a 50% reduction in OD490-OD650 compared to controls. The OD490-OD650 are computed by the SOFTmax PRO software (Molecular Devices) for each compound concentration. IC50 is calculated by linear regression, plotting the FAS activity as percent of control versus drug concentrations. Linear regression, best-fit line, r^2, and 95% confidence intervals are determined using Prism Version 3.0 (Graph Pad Software).

Weight loss, DIO = assay type: in vivo; conditions: 20 mg/kg
[2] = tested on: Escherichia coli (ATCC # 25922); test: Broth microdilution MIC, E. coli; assay type: cell-based; conditions: for Ecoli/MH (MIC): Mueller Hinton Broth; for Ecoli/Tsoy (MIC): Trypticase Soy Broth
Protocol: (§1) A broth microdilution assay is used to assess the antimicrobial activity of the compounds. […] Microorganisms tested include Staphylococcus aureus (ATCC # 29213), Enterococcus faecalis (ATCC # 29212), Pseudomonas aeruginosa (ATCC # 27853), and Escherichia coli (ATCC # 25922). The assay is performed in two growth media, Mueller Hinton Broth and Trypticase Soy Broth. A blood (Tsoy/5% sheep blood) agar plate is inoculated from frozen stocks maintained in T soy broth containing 10% glycerol and incubated overnight at 37° C. Colonies are suspended in sterile broth so that the turbidity matches the turbidity of a 0.5 McFarland standard. The inoculum is diluted 1:10 in sterile broth (Mueller Hinton or Trypticase soy) and 195 ul is dispensed per well of a 96-well plate. The compounds to be tested, dissolved in DMSO, are added to the wells in 5 ul volume at the following concentrations: 25, 12.5, 6.25, 3.125, 1.56 and 0.78 ug/ml in duplicate. Additional concentrations are tested if required. 5 ul of DMSO added to duplicate wells are the vehicle control. Serial dilutions of positive control compounds, vancomycin (E. faecalis and S. aureus) and tobramycin (E. coli and P. aeruginosa), are included in each run. After 24 hours of incubation at 37° C., plates are read at OD600 on a Molecular Devices SpectraMax Plus Spectrophotometer. Average OD600 values are computed using SOFTmax Pro Software (Molecular Devices) and MIC values are determined by linear regression analysis using Prism version 3.02 (Graph Pad Software, San Diego). The MIC is defined as the concentration of compound required to produce an OD600 reading equivalent to 10% of the vehicle control reading.

[3] = tested on: Enterococcus faecalis (ATCC # 29212); test: Broth microdilution MIC, E. faecalis; assay type: cell-based; conditions: for MIC: Enterococcus faecalis, ATCC29212
Protocol: as §1

[4] = tested on: Staphylococcus aureus (ATCC # 29213); test: Broth microdilution MIC, S. aureus; assay type: cell-based; conditions: for MIC: Staphylococcus aureus, ATCC29213
Protocol: as §1

Weight loss screen = assay type: in vivo, Balb/C mice; conditions: 60 mg/kg intraperitoneally
Protocol: Balb/C mice (Jackson Labs) are utilized for the initial weight loss screening. Animals are housed in temperature and 12 hour day/night cycle rooms and fed mouse chow and water ad lib. Three mice are utilized for each compound tested with vehicle controls in triplicate per experiment. For the experiments, mice are housed separately for each compound tested three mice to a cage. Compounds are diluted in DMSO at 10 mg/ml and mice are injected intraperitoneally with 60 mg/kg in approximately 100 μl of DMSO or with vehicle alone. Mice are observed and weighed daily; average weights and standard errors are computed with Excel (Microsoft). The experiment continues until treated animals reach their pretreatment weights. Select compounds are tested in animals housed in metabolic cages. Dosing of animals are identical to the screening experiments with three animals to a single metabolic cage. Animal weights, water and food consumption, and urine and feces production are measured daily.

[5] = tested on: Pseudomonas aeruginosa (ATCC # 27853); test: Broth microdilution MIC, P. aeruginosa; assay type: cell-based; conditions: for MIC: Pseudomonas aeruginosa, ATCC27853
Protocol: as §1

[6] = Trypticase Soy Broth, read-out: EF/Tsoy (MIC)
[7] = Mueller Hinton Broth, read-out: SA/MH (MIC)
[8] = Trypticase Soy Broth, read-out: SA/Tsoy (MIC)
[9] = Trypticase Soy Broth, read-out: PSAE/Tsoy (MIC)
[10] = Mueller Hinton Broth, read-out: PSAE/MH (MIC)

Compound: CCCCCCCCC1OC(=O)C(OC(=O)OCC)=C1C(=O)OCC (stereo not shown) [Compound 7]
- IC50 [1]: 7.7 mg/L (≈ 21.6 µM)

Compound: CCCCCCCCC1OC(=O)C(OC)=C1C(=O)OCC (stereo not shown) [Compound 4]
- IC50 [1]: 25.3 ± 1.5 mg/L (≈ 84.8 µM)

Compound: C=CCOC1=C(C(=O)OCC)C(CCCCCCCC)OC1=O (stereo not shown) [Compound 6]
- IC50 [1]: > 80 mg/L

Compound: CCCCCCCCC1OC(=O)C(OCc2ccccc2)=C1C(=O)OCC (stereo not shown) [Compound 5]
- IC50 [1]: > 80 mg/L

- Ecoli/MH (MIC) [2]: Neg
- Ecoli/Tsoy (MIC) [2]: Neg
- MIC [3, 6]: 42 mg/L (≈ 148 µM)
- EF/MH (MIC) ([3]; Mueller Hinton Broth): Neg
- MIC [4, 7]: 32 mg/L (≈ 113 µM)
- MIC [4, 8]: 25 mg/L (≈ 87.9 µM)
- PSAE/MH (MIC) ([5]; Mueller Hinton Broth): Neg
- MIC [5, 9]: 103 mg/L (≈ 362 µM)
Compound: CCCCCCCCC1OC(=O)C(=O)C1C(=O)OCC (stereo not shown) [Compound 1]
- IC50 [1]: 33.7 ± 14.6 mg/L (≈ 119 µM)
- Weight Loss DIO (Weight loss, DIO; day 3): DIO: 20 mg/kg: 4.6% (day 3)
- Weight Loss (Weight loss screen; day 4): 60 mg/kg: 9.7% (day 4)

- Ecoli/MH (MIC) [2]: Neg
- Ecoli/Tsoy (MIC) [2]: Neg
- MIC [3, 6]: 163 mg/L (≈ 714 µM)
- EF/MH (MIC) ([3]; Mueller Hinton Broth): Neg
- SA/MH (MIC) ([4]; Mueller Hinton Broth): Neg
- SA/Tsoy (MIC) ([4]; Trypticase Soy Broth): Neg
- MIC [5, 10]: 155 mg/L (≈ 679 µM)
- MIC [5, 9]: 210 mg/L (≈ 920 µM)
Compound: CCCCC1OC(=O)C(O)=C1C(=O)OCC (stereo not shown) [Compound 2]
- IC50 [1]: > 80 mg/L
- Weight Loss DIO (Weight loss, DIO; day 2): DIO: 20 mg/kg: 3.0% (day 2)
- Weight Loss (Weight loss screen; day 4): 60 mg/kg: 12.3% (day 4)

- MIC ([3]; Mueller Hinton Broth, read-out: EF/MH (MIC)): 100 mg/L (≈ 270 µM)
- MIC [3, 6]: 135 mg/L (≈ 364 µM)
- MIC [4, 7]: 150 mg/L (≈ 405 µM)
- MIC [4, 8]: 146 mg/L (≈ 394 µM)
- MIC [5, 10]: 173 mg/L (≈ 467 µM)
- MIC [5, 9]: 186 mg/L (≈ 502 µM)
Compound: CCCCCCCCC1OC(=O)C(OCC(=O)OCC)=C1C(=O)OCC (stereo not shown) [Compound 3]
- IC50 [1]: 26.7 ± 5.3 mg/L (≈ 72.1 µM)
- Weight Loss (Weight loss screen; day 1, printed with + sign): 60 mg/kg: +1.8% (day 1)
